Data taken from PubChem BioAssay (NCI).
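All cell lines were grown in 96-well plates and treated with compound for 48 hours. GI50 is the concentration that inhibits growth by half. At the TGI there is no net growth.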

Key:
Assay in all cases: NCI-60 cell line screen, 48 h
[1] = system: MALME-3M melanoma
[2] = system: OVCAR-8 ovarian
[3] = system: SF-539 CNS
[4] = system: HCT-116 colon
[5] = system: NCI-H23 lung
[6] = system: MOLT-4 leukemia
[7] = system: HOP-62 NSCLC
[8] = system: CCRF-CEM leukemia
[9] = system: NCI-H522 lung
[10] = system: HCC-2998 colon
[11] = system: NCI-H460 lung
[12] = system: A498 renal
[13] = system: IGROV1 ovarian
[14] = system: UACC-257 melanoma
[15] = system: ACHN renal
[16] = system: SW-620 colon
[17] = system: HL-60(TB) leukemia
[18] = system: DU-145 prostate
[19] = system: OVCAR-4 ovarian
[20] = system: MCF7 breast
[21] = system: RPMI-8226 leukemia
[22] = system: NCI-H226 lung
[23] = system: SK-MEL-28 melanoma
[24] = system: KM12 colon
[25] = system: SN12C renal
[26] = system: UO-31 renal
[27] = system: HT29 colon
[28] = system: SR leukemia
[29] = system: COLO 205 colon
[30] = system: MDA-MB-231 breast
[31] = system: HCT-15 colon
[32] = system: A549 NSCLC
[33] = system: TK-10 renal
[34] = system: SNB-75 CNS
[35] = system: SF-295 CNS
[36] = system: HS 578T breast
[37] = system: U251 CNS
[38] = system: CAKI-1 renal
[39] = system: 786-0 renal
[40] = system: HOP-92 NSCLC
[41] = system: T-47D breast
[42] = system: RXF 393 renal
[43] = system: EKVX NSCLC
[44] = system: SK-OV-3 ovarian
[45] = system: BT-549 breast
[46] = system: PC-3 prostate
[47] = system: SF-268 CNS
[48] = system: SK-MEL-2 melanoma
[49] = system: SNB-19 CNS
[50] = system: MDA-MB-435
[51] = system: NCI/ADR-RES ovarian
[52] = system: SK-MEL-5 melanoma
[53] = system: K-562 leukemia
[54] = system: M14 melanoma
[55] = system: OVCAR-5 ovarian

Structure (SMILES): CCCCNNC(=O)c1ccc(-c2cccc(F)c2F)cc1
- GI50 [1]: 0.613 µM
- TGI [1]: 5.28 µM
- GI50 [2]: 1.49 µM
- TGI [2]: > 100 µM
- GI50 [3]: 3.19 µM
- TGI [3]: 65.6 µM
- GI50 [4]: 2.57 µM
- TGI [4]: 11.4 µM
- GI50 [5]: 2.39 µM
- TGI [5]: 18.2 µM
- GI50 [6]: 2.49 µM
- TGI [6]: > 100 µM
- GI50 [7]: 3.09 µM
- TGI [7]: > 100 µM
- GI50 [8]: 3.08 µM
- TGI [8]: > 100 µM
- GI50 [9]: 2.3 µM
- TGI [9]: 20.7 µM
- GI50 [10]: 1.48 µM
- TGI [10]: 4.11 µM
- GI50 [11]: 2.71 µM
- TGI [11]: 21.3 µM
- GI50 [12]: 1.04 µM
- TGI [12]: 2.92 µM
- GI50 [13]: 2.02 µM
- TGI [13]: 11.1 µM
- GI50 [14]: 1.39 µM
- TGI [14]: 31.3 µM
- GI50 [15]: 2.3 µM
- TGI [15]: 7.06 µM
- GI50 [16]: 2.92 µM
- TGI [16]: 12.5 µM
- GI50 [17]: 1.07 µM
- TGI [17]: 16.1 µM
- GI50 [18]: 2.43 µM
- TGI [18]: 43.8 µM
- GI50 [19]: 4.03 µM
- TGI [19]: > 100 µM
- GI50 [20]: 0.776 µM
- TGI [20]: 17.5 µM
- GI50 [21]: 0.8 µM
- TGI [21]: 7.88 µM
- GI50 [22]: 2.58 µM
- TGI [22]: 17.1 µM
- GI50 [23]: 2.75 µM
- TGI [23]: 63.7 µM
- GI50 [24]: 4.04 µM
- TGI [24]: 16.1 µM
- GI50 [25]: 4.29 µM
- TGI [25]: 79.9 µM
- GI50 [26]: 1.78 µM
- TGI [26]: 7.25 µM
- GI50 [27]: 2.58 µM
- TGI [27]: > 100 µM
- GI50 [28]: 1.77 µM
- TGI [28]: 57.3 µM
- GI50 [29]: 1.82 µM
- TGI [29]: 5.56 µM
- GI50 [30]: 5.49 µM
- TGI [30]: 34.3 µM
- GI50 [31]: 3.08 µM
- TGI [31]: 17 µM
- GI50 [32]: 3.36 µM
- TGI [32]: 18.4 µM
- GI50 [33]: 0.959 µM
- TGI [33]: 7.9 µM
- GI50 [34]: 0.894 µM
- TGI [34]: 8.29 µM
- GI50 [35]: 2 µM
- TGI [35]: 4.78 µM
- GI50 [36]: 2.44 µM
- TGI [36]: 82.4 µM
- GI50 [37]: 2.58 µM
- TGI [37]: 15.2 µM
- GI50 [38]: 2.76 µM
- TGI [38]: 6.02 µM
- GI50 [39]: 3.75 µM
- TGI [39]: 18.9 µM
- GI50 [40]: 1.04 µM
- TGI [40]: 5.67 µM
- GI50 [41]: 1.14 µM
- TGI [41]: > 100 µM
- GI50 [42]: 1.31 µM
- TGI [42]: 3.67 µM
- GI50 [43]: 3.32 µM
- TGI [43]: 56.3 µM
- GI50 [44]: 4.12 µM
- TGI [44]: 42.5 µM
- GI50 [45]: 5.11 µM
- TGI [45]: > 100 µM
- GI50 [46]: 3.56 µM
- TGI [46]: 27.4 µM
- GI50 [47]: 4.26 µM
- TGI [47]: 18.7 µM
- GI50 [48]: 3.1 µM
- TGI [48]: 53.6 µM
- GI50 [49]: 3.23 µM
- TGI [49]: 19.8 µM
- GI50 [50]: 2.23 µM
- TGI [50]: 8.25 µM
- GI50 [51]: 0.999 µM
- TGI [51]: 6.67 µM
- GI50 [52]: 1.8 µM
- TGI [52]: 3.71 µM
- GI50 [53]: 1.29 µM
- TGI [53]: > 100 µM
- GI50 [54]: 2.93 µM
- TGI [54]: 20.8 µM
- GI50 [55]: 2.02 µM
- TGI [55]: 16.7 µM
